In patent US5147876A, “2,6-di,2,4,6-, 2,5,6-tri and 2,4,5,6-tetra-substituted pyrimidines, their pharmaceutically acceptable salts, pharmaceutical compositions containing same and their use in the treatment of neurological diseases” (Mitsui Petrochemical Industries, Ltd., priority 1988, dated 1992):
Where a name gives a salt, the structure may show the parent alone.

System: neuro-2a (mouse neuroblastoma cells)
Experiment: Action on neuro-2a: proportion of cells containing outgrown neurites
Format: cell-based
Conditions: mean ± S.D.
Description: The effects of the compounds of this invention on neuroblastoma cells were examined by the following method.
Mouse neuro 2a cells in the logarithmic growth period in the Dulbecco's modified Eagle's medium DMEM, containing 100 units/ml of penicillin G sodium and 100 micrograms/ml of streptomycin sulfate]containing 10 % of FCS were seeded in a 48-well plate so that the number of cells was 1,000 cells/well, and cultured for one day in 0.25 ml of the culture fluid in each well in an incubator containing 5 % of carbon dioxide gas in air at 37° C. Then, a 4 % aqueous glutaraldehyde solution in the same amount as a medium (0.25 ml) was added, and the culture fluid was left to stand at room temperature for 2 hours to fix the cells. After washing with water, a 0.05 % aqueous solution of methylene blue was added to stain the cells Under a microscope, the number of cells containing outgrown neurites (cells having at least one neurite with a length of at least two times as large as the long diameter of the cell) was counted visually, and the proportion of these cells in the entire cells was calculated. The well was observed over 5 or more visual fields (at least 2 % of the entire surface area of the well) continuous to the left and right from a mark put at the center of the well, and more than 200 cells was counted. One drug compound was used in 6 different concentrations at most, and three runs were conducted for each concentrations.

| Structure (SMILES) | Number of cells having neurites with a length at least two times the diameter of each cell/total number of cells (0.03 mM) [%] | Number of cells having neurites with a length at least two times the diameter of each cell/total number of cells (0.1 mM) [%] | Number of cells having neurites with a length at least two times the diameter of each cell/total number of cells (0.3 mM) [%] | also measured |
| --- | --- | --- | --- | --- |
| CN(C(=O)c1ccccc1)c1nccc(N2CCC(Cc3ccccc3)CC2)n1 [Compound 692] | 5.8 ± 0.9 | 11.1 ± 2.9 | – | – |
| CC(C)N(Cc1ccccc1)c1nccc(N(C)C(=O)c2ccccc2)n1 [Compound 662] | – | 3.1 ± 1.6 | 2.6 ± 0.9 | – |
| CN(C(=O)c1ccccc1)c1ccnc(N2CCC(c3ccccc3)CC2)n1 [Compound 171] | – | 37.1 ± 1.9 | 8.8 ± 2.6 | – |
| CN(C(=O)c1ccccc1)c1ccnc(NC2CCN(C(=O)c3ccccc3)CC2)n1 [Compound 2202] | – | 2.2 ± 2.0 | – | – |
| CCOC(=O)C1CCN(c2nccc(N(C)C(=O)c3ccccc3)n2)CC1 [Compound 2100] | 4.4 ± 0.8 | 4.7 ± 1.4 | – | – |
| CN(C(=O)c1ccc([N+](=O)[O-])cc1)c1nccc(N2CCC(c3ccccc3)CC2)n1 [Compound 676] | – | – | 6.0 ± 1.1 | Number of cells having neurites with a length at least two times the diameter of each cell/total number of cells (1 mM): 4.2 ± 2.1% |
| COC(=O)c1cnc(NC(C)C)nc1C [Compound 800, 2-isopropylamino-4-methyl-5-methoxycarbonylpyrimidine] | – | – | 11.4 ± 1.2 | Number of cells having neurites with a length at least two times the diameter of each cell/total number of cells (1 mM): 25.7 ± 1.9%; Number of cells having neurites with a length at least two times the diameter of each cell/total number of cells (3 mM): 22.3 ± 0.7%; Number of cells having neurites with a length at least two times the diameter of each cell/total number of cells (10 mM): 16.9 ± 0.8% |
| CCOC(=O)c1cnc(N2CCCCC2)nc1CSC [Compound 816] | 4.7 ± 2.1 | 4.0 ± 0.3 | – | – |
| CNc1nccc(N2CCC(c3ccccc3)CC2)n1 [Compound 1122] | 10.2 ± 3.8 | – | – | Number of cells having neurites with a length at least two times the diameter of each cell/total number of cells (0.01 mM): 4.2 ± 2.1% |
| CN(C(=O)c1ccccc1)c1ccnc(N2CCC(c3ccccc3)CC2)n1 [Compound 166] | – | 36.8 ± 7.1 | 13.4 ± 4.0 | – |
| Cc1ccc(C(=O)N(C)c2ccnc(N3CCC(c4ccccc4)CC3)n2)cc1 [Compound 171-3] | – | 28.8 ± 3.1 | 19.5 ± 7.0 | – |
| CN(C)C(=O)N(C)c1ccnc(N2CCC(c3ccccc3)CC2)n1 [Compound 2294] | 3.7 ± 0.9 | 8.1 ± 1.6 | – | – |
| CN(C(=O)c1ccccc1)c1ccnc(N2CCC(OC(=O)c3ccccc3)CC2)n1 [Compound 2226] | 6.4 ± 3.3 | 15.4 ± 3.9 | – | – |
| CN(C(=O)c1ccccc1)c1ccnc(N(Cc2ccccc2)Cc2ccccc2)n1 [Compound 2108] | 4.8 ± 2.0 | – | – | Number of cells having neurites with a length at least two times the diameter of each cell/total number of cells (1 mM): 13.5 ± 0.1% |
| CN1C(=O)Cc2cnc(N3CCN(C(c4ccccc4)c4ccc(F)cc4)CC3)nc21 (centres unmarked) [Compound 3136] | 13.8 ± 4.8 | 20.9 ± 5.3 | 7.1 ± 3.0 | Number of cells having neurites with a length at least two times the diameter of each cell/total number of cells (0.01 mM): 5.8 ± 0.6% |
| CCCCNC1CCN(c2nccc(N(C)C(=O)c3ccccc3)n2)CC1 [Compound 2260] | 2.2 ± 0.3 | 2.3 ± 0.5 | – | – |
| CN1C(=O)Cc2cnc(N3CCN(C4c5ccccc5-c5ccccc54)CC3)nc21 [Compound 3200] | – | – | – | Number of cells having neurites with a length at least two times the diameter of each cell/total number of cells (0.01 mM): 2.7 ± 0.7% |
| CN1C(=O)Cc2cnc(N3CCN(C(c4ccccc4)(c4ccccc4)c4ccccc4)CC3)nc21 [Compound 3300] | – | – | 6.1 ± 1.2 | Number of cells having neurites with a length at least two times the diameter of each cell/total number of cells (1 mM): 7.8 ± 1.0% |
| CN(C(=O)c1ccccc1)c1ccnc(N2CCC(c3ccc([N+](=O)[O-])cc3)CC2)n1 [Compound 2076] | 1.9 ± 1.3 | – | – | Number of cells having neurites with a length at least two times the diameter of each cell/total number of cells (0.01 mM): 4.8 ± 1.4% |
| CC1CCN(c2nccc(N(C(=O)c3ccccc3)c3ccccc3)n2)CC1.Cc1ccc(S(=O)(=O)O)cc1 [Compound 150] | 9.3 ± 1.9 | 13.6 ± 1.2 | 6.6 ± 3.0 | – |
| CNc1nccc(N2CCc3ccccc3C2)n1 [Compound 1130] | 1.8 ± 0.5 | 2.0 ± 0.3 | – | – |
| CCN(C(=O)c1ccccc1)c1nccc(N2CCC(c3ccccc3)CC2)n1 [Compound 636] | 12.1 ± 3.4 | 8.9 ± 5.2 | – | – |
| CN(C(=O)c1ccccc1)c1nccc(N2CCC(C(C)(C)C)CC2)n1 [Compound 620] | 4.0 ± 1.3 | – | – | Number of cells having neurites with a length at least two times the diameter of each cell/total number of cells (0.01 mM): 4.7 ± 0.4% |
| CC(C)N(C(=O)c1ccccc1)c1nccc(N2CCC(c3ccccc3)CC2)n1 [Compound 652] | 6.1 ± 0.6 | 12.5 ± 2.8 | – | – |
| CN(C(=O)COc1ccccc1)c1ccnc(N2CCC(c3ccccc3)CC2)n1 [Compound 2286] | 9.7 ± 5.4 | 8.4 ± 0.8 | – | – |
| CN(C(=O)c1ccccc1)c1ccnc(N2CCC(O)CC2)n1 [Compound 2060] | 3.6 ± 0.1 | – | – | Number of cells having neurites with a length at least two times the diameter of each cell/total number of cells (1 mM): 7.6 ± 0.7% |
| Cc1ccc(S(=O)(=O)N(C)c2ccnc(N3CCC(c4ccccc4)CC3)n2)cc1 [Compound 2012] | 6.6 ± 1.2 | – | 6.6 ± 3.1 | – |
| CN1C(=O)Cc2cnc(N3CCN(C(c4ccccc4)c4ccccc4)CC3)nc21 [Compound 3128, 2-(4-diphenylmethylpiperazino)-5,6-dihydro-7-methyl-6-oxo(7H)pyrrolo2,3-d]pyrimidine hydrochloride] | – | 14.2 ± 1.9 | 11.9 ± 4.5 | – |
